For the data set the following is noted: in vivo.

On to Arsenious acid [As^III], for which the “concentration range in urine” value is 2.13 to 101 ng/mL, the “median concentration in urine” value was 13.8 µg/L and the “share of ΣAs in urine” value is listed as 3.8-36.9%.
Consider Arsenic acid [As^V], for which the “concentration range in urine” value fell in the range of 0 to 12.1 ng/mL and the “median concentration in urine” value was found to be 1.12 µg/L.
